Test results published in publication PMC7767178 (International Journal of Molecular Sciences, 2020).
Where two headings read alike, the source gives them in different places. Positions of bridges follow the written chain, without caps; N, C: chain ends. Residues, ends and D or L forms follow the SMILES beside them.

What was measured:
A. veronii ATCC35624 = type: cell-based
A. veronii X-1-06909 = experiment: microbe, parasite or virus in culture; type: cell-based
Description: (§1) All experiments were repeated three times.

[1] = test system: Candida albicans CMCC98001; experiment: microbe, parasite or virus in culture; type: cell-based
Description: as §1

E. coli CVCC1515 = experiment: microbe, parasite or virus in culture; type: cell-based
Description: as §1

E. coli CVCC25922 = experiment: microbe, parasite or virus in culture; type: cell-based; conditions: E. coli CVCC25922, broth dilution, 37 °C, 16–18 h, three experiments
Description: as §1

Escherichia coli CVCC195 = experiment: microbe, parasite or virus in culture; type: cell-based; conditions: Escherichia coli CVCC195, broth dilution, 37 °C, 16–18 h, three experiments
Description: as §1

S. enteritidis CVCC3377 = experiment: microbe, parasite or virus in culture; type: cell-based
Description: as §1

S. pullorum CVCC1789 = experiment: microbe, parasite or virus in culture; type: cell-based
Description: as §1

S. pullorum CVCC1809 = experiment: microbe, parasite or virus in culture; type: cell-based; conditions: S. pullorum CVCC1809, broth dilution, 37 °C, 16–18 h, three experiments
Description: as §1

S. pullorum CVCC533 = experiment: microbe, parasite or virus in culture; type: cell-based
Description: as §1

[2] = test system: Staphylococcus aureus ATCC43300; experiment: microbe, parasite or virus in culture; type: cell-based
Description: as §1

E. coli CVCCO157 = experiment: MIC, microtiter broth dilution; type: cell-based; conditions: 37 °C, 16–18 h, three experiments
Description: as §1

A. veronii ACCC61732 [3] = experiment: Time-killing curves; type: cell-based; conditions: 2× MIC; 1 × 10^5 CFU/mL, colony counting, 0–24 h
Procedure: Time-killing curves were performed as previously described. […] The sample of 100 μL was taken from each flask at 0, 0.5, 1, 2, 4, 6, 8, 10, 20, and 24 h, respectively, and serially diluted for colony counting. PBS and CIP were used as the negative and positive control, respectively.

A. veronii ACCC61732 [4] = experiment: microbe, parasite or virus in culture; type: cell-based
In short: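 Checkerboard microdilution pairing peptides with antibiotics of several classes. Interaction scored by FIC index (sum of combination/alone MIC ratios): ≤0.5 synergy, >0.5-1 additive, >1-4 indifference, >4 antagonism.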

A. veronii ACCC61732 [5] = experiment: Post-antibiotic effect (PAE); type: cell-based; conditions: for PAE: 2 h exposure, 1000-fold dilution, 37 °C, triplicate; for PAEs, range over 1×–4× MIC: 1× to 4× MIC
Procedure: The samples were taken from flasks for counting each hour until bacterial cultures became turbid. The untreated bacteria severed as controls. The PAE was calculated using the following equation: PAE = T − C, where T is the time (h) required for the CFU in the test culture to increase by 10-fold from the count immediately after the drug removal and C is the corresponding time (h) for the control. The experiment was performed in triplicate.

A. veronii ACCC61732 [6] = experiment: Resistance development, 30 serial passages; type: cell-based; conditions: A. veronii ACCC61732, 30 passages (30 days)
Procedure: The development of bacterial resistance of peptides was performed by the MIC assays. […] GEN, CIP, and PMB were used as controls. […] The MIC values were measured as described above. The serial passaging was repeated for 30 days.

A. veronii ACCC61732 [7] = experiment: Outer membrane permeabilization, NPN assay; type: cell-based; conditions: NPN fluorescence, 1×–4× MIC
Procedure: The outer membrane permeabilization abilities of peptides were determined using the fluorescent NPN assay. Mid-log phase A. veronii ACCC61732 was collected by centrifugation, washed twice, and then suspended in N-2-hydroxyethylpiperazine-n-2-ethane sulfonic acid (HEPES) buffer (pH 7.4) to an OD600nm = 0.4. […] Fluorescence intensity was recorded until no further increase with a microplate reader (excitation/emission, 328/438 nm).

A. veronii ACCC61732 [8] = experiment: Inner membrane permeability, PI staining, flow cytometry; type: cell-based
Procedure: To analyze effects of peptides on the inner membrane, A. veronii ACCC61732 cells were cultured to mid-log phase at 37 °C in MHB medium, washed thrice with PBS, and resuspended in the PBS buffer to 1 × 10^8 CFU/mL. […] After fixation with PI, the samples were detected by a fluorescent inverted microscope and FACS Calibur Flow Cytometer (BD, San Jose, CA, USA), respectively. Cell Quest Pro software (BD, San Jose, CA, USA) was used for the data analysis.

[9] = test system: A. veronii ACCC61732 in biofilm; type: cell-based; conditions: 2 h
Procedure: The mid-log phase A. veronii ACCC61732 cells (1 × 10^8 CFU/mL) were inoculated into in the 96-well plates and cultured for 24 h at 37 °C. The plates were washed twice with PBS. […] PBS was used as the negative control. The plates were treated with ultrasound for 5 min and the viable bacteria were counted on the TSA plates.

in vitro = conditions: mouse, 25% mouse serum
[10] = A. veronii ATCC35624, broth dilution, 37 °C, 16–18 h, three experiments
[11] = A. veronii X-1-06909, broth dilution, 37 °C, 16–18 h, three experiments
[12] = E. coli CVCC1515, broth dilution, 37 °C, 16–18 h, three experiments
[13] = S. enteritidis CVCC3377, broth dilution, 37 °C, 16–18 h, three experiments
[14] = S. pullorum CVCC1789, broth dilution, 37 °C, 16–18 h, three experiments
[15] = S. pullorum CVCC533, broth dilution, 37 °C, 16–18 h, three experiments
[16] = Staphylococcus aureus ATCC43300, broth dilution, 37 °C, 16–18 h, three experiments

CC(C)[C@@H]1NC(=O)CNC(=O)[C@H](CC(N)=O)NC(=O)[C@H](CCCNC(=N)N)NC(=O)[C@H](Cc2ccc(O)cc2)NC(=O)[C@H](C(C)C)NC(=O)[C@@H](NC(=O)[C@@H](NC(=O)[C@H](CC(N)=O)NC(=O)[C@H](Cc2c[nH]c3ccccc23)NC(=O)[C@H](C)NC(=O)[C@H](Cc2ccccc2)NC(=O)[C@H](CCCN)N=C(N(C)C)N(C)C)C(C)C)CSSC[C@@H](C(=O)N[C@@H](Cc2c[nH]cn2)C(=O)N[C@@H](CCCNC(=N)N)C(=O)N[C@@H](CCCNC(=N)N)C(=O)N[C@@H](C)C(=O)N[C@@H](CC(N)=O)C(N)=O)NC(=O)[C@H](C(C)C)NC(=O)[C@H](CCCNC(=N)N)NC1=O (stereo in doubt) [Guo-N6NH2]
MIC (A. veronii ATCC35624; [10]): 32 µg/mL | MIC (A. veronii ATCC35624; ATCC35624): 12.16 µM | MIC (A. veronii X-1-06909; [11]): 16 µg/mL | MIC (A. veronii X-1-06909; read-out: MIC): 6.08 µM | MIC ([1]; CMCC98001, read-out: MIC): >48.6 µM | MIC (E. coli CVCC1515; CVCC1515, read-out: MIC): 0.76 µM | MIC (E. coli CVCC1515; [12]): 2 µg/mL | MIC (E. coli CVCC25922): 4 µg/mL | MIC (Escherichia coli CVCC195): 4 µg/mL | MIC (S. enteritidis CVCC3377; CVCC3377, read-out: MIC): 0.76 µM | MIC (S. enteritidis CVCC3377; [13]): 2 µg/mL | MIC (S. pullorum CVCC1789; CVCC1789, read-out: MIC): 3.04 µM | MIC (S. pullorum CVCC1789; [14]): 8 µg/mL | MIC (S. pullorum CVCC1809): 4 µg/mL | MIC (S. pullorum CVCC533; CVCC533, read-out: MIC): 3.04 µM | MIC (S. pullorum CVCC533; [15]): 8 µg/mL | MIC ([2]; ATCC43300, read-out: MIC): 6.08 µM | MIC [2, 16]: 16 µg/mL | MIC (E. coli CVCCO157): 4 µg/mL | time to completely kill A. veronii ACCC61732 (A. veronii ACCC61732 [3]): 6 h | MICa, MIC of the peptide used alone (A. veronii ACCC61732 [4]): 8 µg/mL | interaction with polymyxin B (PMB) (A. veronii ACCC61732 [4]; checkerboard, by FICI): synergic effect | PAE (A. veronii ACCC61732 [5]; 1× MIC): 0.62 ± 0.01 h | PAEs, range over 1×–4× MIC (A. veronii ACCC61732 [5]): 0.62 to 2.07 h | PAE (A. veronii ACCC61732 [5]; 2× MIC): 1.32 ± 0.08 h | PAE (A. veronii ACCC61732 [5]; 4× MIC): 2.07 ± 0.08 h | increase of MIC after 30 serial passages (A. veronii ACCC61732 [6]): three-fold | ability to penetrate the outer membrane (A. veronii ACCC61732 [7]): higher ability to penetrate the outer membrane than N6NH2 | Permeability (PI-positive cells) (A. veronii ACCC61732 [8]; 1× MIC, 0.5 h): 0.63% | Permeability (PI-positive cells) (A. veronii ACCC61732 [8]; 1× MIC, 2 h): 4.96% | Permeability (PI-positive cells) (A. veronii ACCC61732 [8]; 2× MIC, 0.5 h): 0.55% | Permeability (PI-positive cells) (A. veronii ACCC61732 [8]; 2× MIC, 2 h): 1.91% | Permeability (PI-positive cells) (A. veronii ACCC61732 [8]; 4× MIC, 0.5 h): 0% | Permeability (PI-positive cells) (A. veronii ACCC61732 [8]; 4× MIC, 2 h): 2.16% | bacteria in biofilm killed [9]; 8: 46.26% | bacteria in biofilm killed [9]; 16: 54.31% | remaining at 2 h (in vitro): 84% | remaining at 4.5 h (in vitro): 56.8% | remaining at 6 h (in vitro): 44.2%

CC(C)[C@H](N)C(=O)N[C@@H](Cc1ccccc1)C(=O)N[C@@H](C)C(=O)N[C@@H](Cc1c[nH]c2ccccc12)C(=O)N[C@@H](CC(N)=O)C(=O)N[C@H](C(=O)N[C@H]1CSSC[C@@H](C(=O)N[C@@H](Cc2c[nH]cn2)C(=O)N[C@@H](CCCNC(=N)N)C(=O)N[C@@H](CCCNC(=N)N)C(=O)N[C@@H](C)C(=O)N[C@@H](CC(N)=O)C(N)=O)NC(=O)[C@H](C(C)C)NC(=O)[C@H](CCCNC(=N)N)NC(=O)[C@H](C(C)C)NC(=O)[C@H](C(C)C)NC(=O)[C@H](CC(N)=O)NC(=O)[C@H](CCCNC(=N)N)NC(=O)[C@H](Cc2ccc(O)cc2)NC(=O)[C@H](C(C)C)NC1=O)C(C)C [V112N6NH2] (H-VFAWNVCVYRNVVRVCHRRAN-NH2; disulfide 7-16 (inferred))
MIC (A. veronii ATCC35624; [10]): 16 µg/mL | MIC (A. veronii ATCC35624; ATCC35624): 6.25 µM | MIC (A. veronii X-1-06909; [11]): 32 µg/mL | MIC (A. veronii X-1-06909; read-out: MIC): 12.51 µM | MIC ([1]; CMCC98001, read-out: MIC): >50.02 µM | MIC ([1]; Candida albicans CMCC98001, broth dilution, 37 °C, 16–18 h, three experiments): >128 µg/mL | MIC (E. coli CVCC1515; CVCC1515, read-out: MIC): 1.56 µM | MIC (E. coli CVCC1515; [12]): 4 µg/mL | MIC (E. coli CVCC25922): 8 µg/mL | MIC (E. coli CVCC25922; read-out: MIC): 3.13 µM | MIC (Escherichia coli CVCC195): 8 µg/mL | MIC (Escherichia coli CVCC195; read-out: MIC): 3.13 µM | MIC (S. enteritidis CVCC3377; CVCC3377, read-out: MIC): 0.78 µM | MIC (S. enteritidis CVCC3377; [13]): 2 µg/mL | MIC (S. pullorum CVCC1789; CVCC1789, read-out: MIC): 6.25 µM | MIC (S. pullorum CVCC1789; [14]): 16 µg/mL | MIC (S. pullorum CVCC1809): 8 µg/mL | MIC (S. pullorum CVCC1809; read-out: MIC): 3.13 µM | MIC (S. pullorum CVCC533; CVCC533, read-out: MIC): 6.25 µM | MIC (S. pullorum CVCC533; [15]): 16 µg/mL | MIC ([2]; ATCC43300, read-out: MIC): 12.5 µM | MIC [2, 16]: 32 µg/mL | MIC (E. coli CVCCO157): 8 µg/mL | MIC (E. coli CVCCO157; read-out: MIC): 3.13 µM | time to completely kill A. veronii ACCC61732 (A. veronii ACCC61732 [3]): unable completely kill | PAE (A. veronii ACCC61732 [5]; 1× MIC): 0.74 ± 0.02 h | PAEs, range over 1×–4× MIC (A. veronii ACCC61732 [5]): 0.74 to 2.15 h | PAE (A. veronii ACCC61732 [5]; 2× MIC): 1.48 ± 0.05 h | PAE (A. veronii ACCC61732 [5]; 4× MIC): 2.15 ± 0.13 h | increase of MIC after 30 serial passages (A. veronii ACCC61732 [6]): one-fold | ability to penetrate the outer membrane (A. veronii ACCC61732 [7]): best ability to penetrate the outer membrane | Permeability (PI-positive cells) (A. veronii ACCC61732 [8]; 1× MIC, 0.5 h): 0% | Permeability (PI-positive cells) (A. veronii ACCC61732 [8]; 1× MIC, 2 h): 1.8% | Permeability (PI-positive cells) (A. veronii ACCC61732 [8]; 2× MIC, 0.5 h): 0% | Permeability (PI-positive cells) (A. veronii ACCC61732 [8]; 2× MIC, 2 h): 5.67% | Permeability (PI-positive cells) (A. veronii ACCC61732 [8]; 4× MIC, 0.5 h): 4.28% | Permeability (PI-positive cells) (A. veronii ACCC61732 [8]; 4× MIC, 2 h): 23.93% | bacteria in biofilm killed [9]; 8: 46.21% | bacteria in biofilm killed [9]; 16: 52.04% | remaining at 2 h (in vitro): 81.4% | remaining at 4.5 h (in vitro): 32.1% | remaining at 6 h (in vitro): 19.1%
